Literature values in patent US20240139257A1, “METHODS AND COMPOSITIONS FOR ALOPECIA TREATMENT USING FIBROBLASTS AND FIBROBLAST-DERIVED PRODUCTS” (FIGENE, LLC, priority 2021, published 2024).

Tests used:
IL-8 mRNA = settings: scalp biopsies, AA patients, after successful DCP treatment
[1] = system: interferon (IFN)-gamma mRNA; settings: scalp biopsies, AA patients, after successful DCP treatment; still above the constitutive level found in controls
[2] = system: tumor necrosis factor-alpha mRNA; settings: scalp biopsies, AA patients, after successful DCP treatment
IL-10 mRNA = settings: scalp biopsies, AA patients, after successful DCP treatment
IL-2 mRNA = settings: scalp biopsies, AA patients, after successful DCP treatment

O=c1c(-c2ccccc2)c1-c1ccccc1 [DCP, diphenylcyclopropenone]
mRNA expression of IL-8 after DCP treatment (IL-8 mRNA): increased
IFN-gamma expression after DCP treatment [1]: reduced
mRNA expression of tumor necrosis factor-alpha after DCP treatment [2]: increased
mRNA expression of IL-10 after DCP treatment (IL-10 mRNA): increased
mRNA expression of IL-2 after DCP treatment (IL-2 mRNA): increased
Therapeutic benefit of topical immunotherapy in AA patients (alopecia areata (AA)): some therapeutic benefits
